The record followed here is patent publication US20240368161A1, “CYCLOPROPANECARBOXAMIDE-CONTAINING COMPOUNDS AND APPLICATION THEREOF” (CGENETECH (SUZHOU, CHINA) CO., LTD., priority 2022, published 2024).

Read-outs that look alike come from different tables or passages of the source. Bounds are passed on as bounds.

One data set addresses JAK1 (Homo sapiens (Human), UniProt P23458). Description: JAK1 kinase inhibitory activity determination (HTRF Kinase-TK). As to conditions: JAK1 0.32 ng/μL, ATP 4 μM, substrate 1 μM, 4 h. Type of data set: biochemical. A general note: Time-resolved FRET reads energy transfer from a long-lived donor to a nearby acceptor.
Another data set concerns the target JAK2 (Homo sapiens (Human), UniProt O60674). Description: JAK2 kinase inhibitory activity determination (HTRF Kinase-TK). The class given is biochemical. The settings on record: JAK2 0.008 ng/μL, ATP 4 μM, substrate 1 μM, 2 h.
For another data set, the target named is JAK3 (Homo sapiens (Human), UniProt P52333). The data set can be described thus: JAK3 kinase inhibitory activity determination (HTRF Kinase-TK). The class given is biochemical. The settings on record: JAK3 0.1 ng/μL, ATP 3 μM, substrate 1 μM, 3 h.
A short description of data set [1]: Oral pharmacokinetic determination in mice. The class given is in vivo, C57 mice. The settings on record: for AUC(0-inf) / AUC(0-t) / Cmax / Tmax / MRT last / MRT inf / half-life: mouse, male C57 mice, plasma; for MRT last: read-out: MRT(0-t); for MRT inf: read-out: MRT(0-∞); for half-life: read-out: T½ (converted). As to the method:
Three healthy male C57 mice, aged 6-8 weeks, were purchased from Shanghai Sippr-BK Laboratory Animal Co. Ltd. (Shanghai, China).
Mice were fasted overnight prior to oral administration, and food supply was resumed 4 h after administration with free access to water. […] blood sampling; approximately 30 μL of blood was collected from the tested animals at 0.125 h, 0.25 h, 0.5 h, 1 h, 2 h, 4 h, 8 h, and 24 h, respectively, after administration and placed in test tubes containing the anticoagulant sodium heparin, which were placed on ice until centrifugation, and within 15 min, centrifuged in a centrifuge at 6800 g for 6 min at 6-8° C., and within 1 h of blood collection/centrifugation, plasma was transferred to appropriately labeled tubes and stored frozen at about −80° C.
Mass spectrometry method: LC-MS/MS-19 (TQ5500) (SCIEX, USA), ion source: ESI source, detection mode: positive ion detection, scanning mode: multi-reaction monitoring (MRM) mode, m/z: 271.10/172.00 Da (Tolbutamide, internal standard).
To 10 μL of the plasma sample, was added 200 μL of internal standard working solution (Tolbutamide, 100 ng/mL), with vortex for 1 min, followed by centrifugation for 10 min at 18,000 g. 200 μL of a supernatant was transferred to a 96-well low volume plate, and 1 μL of the supernatant was taken and injected into LC-MS/MS for analysis.
Pharmacokinetic (PK) parameters were calculated using Phoenix WinNonlin 7.0 software, and oral pharmacokinetic parameters of mice including AUC, Cmax, Tmax, T½, etc., were estimated by the non-compartment model.

Sequence of JAK3 (P52333 795-1124): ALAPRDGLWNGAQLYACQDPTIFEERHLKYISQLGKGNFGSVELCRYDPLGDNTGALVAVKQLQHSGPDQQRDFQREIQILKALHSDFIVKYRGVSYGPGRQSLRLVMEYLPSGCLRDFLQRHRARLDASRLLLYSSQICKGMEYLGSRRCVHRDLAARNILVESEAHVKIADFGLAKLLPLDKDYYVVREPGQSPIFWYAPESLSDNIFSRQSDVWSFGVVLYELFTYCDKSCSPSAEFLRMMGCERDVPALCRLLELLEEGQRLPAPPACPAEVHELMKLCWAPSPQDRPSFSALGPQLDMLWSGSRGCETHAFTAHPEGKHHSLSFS
Sequence of JAK2 (O60674 826-1132): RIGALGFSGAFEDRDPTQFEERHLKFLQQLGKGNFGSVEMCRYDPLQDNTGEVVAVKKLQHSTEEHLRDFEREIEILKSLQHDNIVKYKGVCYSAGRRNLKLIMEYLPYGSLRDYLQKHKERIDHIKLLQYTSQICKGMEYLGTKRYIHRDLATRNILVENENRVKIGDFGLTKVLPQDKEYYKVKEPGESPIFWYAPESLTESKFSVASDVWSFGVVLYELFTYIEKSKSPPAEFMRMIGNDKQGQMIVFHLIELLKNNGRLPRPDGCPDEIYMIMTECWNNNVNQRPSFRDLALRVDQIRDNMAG
Sequence of JAK1 (P23458 866-1154): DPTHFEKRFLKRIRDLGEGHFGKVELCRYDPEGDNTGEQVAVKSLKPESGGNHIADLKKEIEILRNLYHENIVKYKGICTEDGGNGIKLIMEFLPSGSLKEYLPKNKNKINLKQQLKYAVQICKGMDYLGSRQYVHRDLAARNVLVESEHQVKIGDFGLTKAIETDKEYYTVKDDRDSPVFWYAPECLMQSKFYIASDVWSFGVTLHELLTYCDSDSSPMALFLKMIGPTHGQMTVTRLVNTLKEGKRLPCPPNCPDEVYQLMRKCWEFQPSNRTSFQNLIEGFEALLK
Procedure for JAK1: (§1) • JAK1: 0.32 ng/μL, ATP 4 M, substrate 1 μM, time 4 h • JAK2: 0.008 ng/μL, ATP 4 μM, substrate 1 M, time 2 h • JAK3: 0.1 ng/μL, ATP 3 μM, substrate 1 μM, time 3 h
(§2) The half-maximal inhibitory concentration (IC50) was fitted using GraphPad Prism 6 based on the kinase inhibition rates of the compound to be tested at different concentrations.
Procedure for JAK2: as §1, §2
Procedure for JAK3: as §1
At the end of incubation, HTRF665/620 signals were read on a multifunctional microplate reader.
as §2

One may read the IC50 as the point on the concentration scale where inhibition reaches its midpoint. Take `O=C(Nc1nc2cccc(-c3ccc(CN4CCS(=O)(=O)CC4)cc3)n2n1)C1CC1(F)F` (centres unmarked) [Compound 25]: the 50% inhibitory concentration (IC50) against JAK1 is 590 nM; on JAK2 it was 1980 nM; on JAK3, 7780 nM.
In the case of `N#CCC1(n2cc(-c3cccc4nc(NC(=O)C5CC5)cn34)cn2)CCCCC1` [Compound 14], the values for the IC50 against JAK1 and at JAK2 were 115 nM and 6.7 nM, respectively.
On the same counts, the results for `CCC(CC#N)n1cc(-c2cccc3nc(NC(=O)C4CC4)cn23)cn1` (centres unmarked) [Compound 4] are 19.5 nM and 4.68 nM.
On to `O=C(Nc1nc2cccc(-c3ccc(CN4CCS(=O)(=O)CC4)cc3)n2n1)C1(F)CC1` [Compound 24], for which the IC50 is 3640 nM on JAK1, 1580 nM against JAK2 and over 10000 nM at JAK3.
Regarding `O=C(Nc1nc2cccc(-c3ccc(CN4CCS(=O)(=O)CC4)cc3)n2n1)C1C[C@@H]1F` (some centres unmarked) [Compound 27], the IC50 was determined as 1080 nM against JAK1, 415 nM at JAK2 and 1920 nM against JAK3.
For the molecule `N#CCC(CC1CC1)n1cc(-c2cccc3nc(NC(=O)C4CC4)cn23)cn1` (centres unmarked) [Compound 3], the IC50 came to 37.8 nM against JAK1 and 6.87 nM at JAK2.
On the same counts, the results for `N#CCC(C1CCCC1)n1cc(-c2cccc3nc(NC(=O)C4CC4)nn23)cn1` (centres unmarked) [Compound 11] are 36.6 nM and 6.28 nM.
On the same counts, the results for `COCCC(CC#N)n1cc(-c2cccc3nc(NC(=O)C4CC4)cn23)cn1` (centres unmarked) [Compound 9] are 28.3 nM and 13.4 nM.
`CC(C)CS(=O)(=O)C1CCN(Cc2ccc(-c3cccc4nc(NC(=O)C5CC5)cn34)cc2)CC1` [Compound 33]: the IC50 on JAK1 was determined as 675 nM; against JAK2, 463 nM; against JAK3 it was 8280 nM.
On the same counts, the results for `O=C(Nc1cn2c(-c3ccc(CN4CCC(F)(F)CC4)cc3)cccc2n1)C1CC1` [Compound 28] are 26.2 nM, 24.2 nM and 94.9 nM.
With `N#CCC1(n2cc(-c3cccc4nc(NC(=O)C5CC5)cn34)cn2)CCC(F)(F)CC1` [Compound 12], the 50% inhibitory concentration (IC50) on JAK1 turned out to be 10 nM; against JAK2 it was 0.7 nM.
The like results for `N#CCC(CCC(F)(F)F)n1cc(-c2cccc3nc(NC(=O)C4CC4)cn23)cn1` (centres unmarked) [Compound 10] were, in that order, 6.64 nM and 1.24 nM.
With `O=C(Nc1nc2cccc(-c3ccc(OC4CCS(=O)(=O)CC4)cc3)n2n1)C1CC1` [Compound 19], the IC50 was 182 nM at JAK1, 90.3 nM at JAK2 and 909 nM against JAK3.
By AUC(0-inf) is commonly meant the area under the concentration-time curve extrapolated to infinity. High values mean high exposure, low ones low exposure. A word on the AUC(0-t): it is exposure summed from dosing to a finite time, without extrapolation to infinity. Broadly, the Cmax is the peak of the concentration-time curve. Broadly, the Tmax is the time from dosing to the highest level. With `O=C(Nc1nc2cccc(-c3ccc(CN4CCS(=O)(=O)CC4)cc3)n2n1)C1CC1` [Filgotinib, reference compound], in data set [1] (oral, dose 5 mg/kg), the AUC(0-inf) was found to be 2190 ng·h/mL, the exposure AUC(0-t) is 2120 ng·h/mL, the Cmax stood at 1710 ng/mL and the Tmax amounted to 0.25 h. In data set [1] (oral, dose 5 mg/kg), the MRT last is 1.54 h, the MRT inf amounted to 1.82 h and the half-life was 1.79 h.
Consider `O=C(Nc1nc2cccc(-c3ccc(CN4CCS(=O)(=O)CC4)cc3)n2n1)C1C[C@H]1F` (some centres unmarked) [Compound 26], for which the IC50 was 1250 nM against JAK1, 1090 nM against JAK2 and 3450 nM against JAK3.
Take `CS(=O)(=O)C1CN(Cc2ccc(-c3cccc4nc(NC(=O)C5CC5)cn34)cc2)C1` [Compound 15]: the “systemic exposure (AUC) per unit dose compared to Filgotinib” value in data set [1] (mice, oral, unit dose comparison) is listed as “higher systemic exposure”. Also, in data set [1] (oral (gavage), dose 10 mg/kg), the total exposure AUC(0-inf) is 9880 ng·h/mL, the exposure AUC(0-t) worked out at 9750 ng·h/mL, the peak level (Cmax) was 6220 ng/mL and the Tmax is 0.29 h. In data set [1] (oral (gavage), dose 10 mg/kg), the MRT last amounted to 1.6 h, the MRT inf was found to be 1.7 h and the half-life was 1.31 h.
Take `O=C(Nc1cn2c(-c3ccc(ON4CC[S+]([O-])CC4)cc3)cccc2n1)C1CC1` [Compound 21]: the values for the IC50 against JAK1 and at JAK2 were 247 nM and 592 nM, respectively.
For the molecule `O=C(Nc1cn2c(-c3ccc(CN4CCS(=O)(=O)CC4)cc3F)cccc2n1)C1CC1F` (centres unmarked) [Compound 29], the values for the IC50 on JAK1, on JAK2 and at JAK3 were 88.7 nM, 170 nM and 6110 nM, respectively.
With `CCCCC(CC#N)n1cc(-c2cccc3nc(NC(=O)C4CC4)cn23)cn1` (centres unmarked) [Compound 7], the IC50 against JAK1 was found to be 7.62 nM; against JAK2 it was 1.72 nM.
On to `CC(C)S(=O)(=O)C1CCN(Cc2ccc(-c3cccc4nc(NC(=O)C5CC5)cn34)cc2)CC1` [Compound 32], for which the IC50 came to 956 nM against JAK1, 448 nM against JAK2 and 9640 nM against JAK3.
As to `N#CCC(C1CCCC1)n1cc(-c2cccc3nc(NC(=O)C4CC4)cn23)cn1` (centres unmarked) [Compound 1], the concentration for half-maximal inhibition (IC50) was 57.6 nM against JAK1 and 4.13 nM on JAK2.
The like results for `COCC(CC#N)n1cc(-c2cccc3nc(NC(=O)C4CC4)cn23)cn1` (centres unmarked) [Compound 6] were, in that order, 48.9 nM and 9.49 nM.
As to `N#CCC1(n2cc(-c3cccc4nc(NC(=O)C5CC5)cn34)cn2)CCC(C(F)(F)F)CC1` (centres unmarked) [Compound 13], the concentration for half-maximal inhibition (IC50) against JAK1 stood at 8.4 nM; at JAK2, 0.8 nM; against JAK3 it was 46.8 nM.
The like results for `CCS(=O)(=O)C1CCN(Cc2ccc(-c3cccc4nc(NC(=O)C5CC5)cn34)cc2)CC1` [Compound 30] were, in that order, 387 nM, 162 nM and 5590 nM.
For `CCCC(CC#N)n1cc(-c2cccc3nc(NC(=O)C4CC4)cn23)cn1` (centres unmarked) [Compound 5], the values for the concentration for half-maximal inhibition (IC50) on JAK1 and on JAK2 were 14 nM and 1.81 nM, respectively.
The like results for `N#CCC(C1CC1)n1cc(-c2cccc3nc(NC(=O)C4CC4)cn23)cn1` (centres unmarked) [Compound 2] were, in that order, 77 nM and 13.5 nM.
